Measurements from US20170280720A1, “ARGININE […] INHIBITORS AND USES THEREOF” (EPIZYME, INC., priority 2014, published 2017).
Structures can show the parent of a compound that is named as a salt.

Biological target: T1, human PRMT1 (Homo sapiens, UniProt Q99873)
T1 construct: GST-tagged PRMT1; made in house; host or cells: High Five insect cells (baculovirus, pFastBacI)
Assay: PRMT1 biochemical assay (3H-SAM Flashplate, peptide substrate)
Conditions: read-out: PRMT1_ IC50
Outline: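 FLAG-tagged full-length human PRMT1 (0.5 nM, GST-tagged, insect-cell expressed) preincubated 30 min at RT with compound, then biotinylated histone H4 36-50 peptide (20 nM) plus 200 nM 3H-SAM and 1.5 uM SAM in Bicine pH 7.6, 2% DMSO. 3H-methylated peptide captured on streptavidin Flashplate; IC50 from 3/4-parameter fit.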

T1 sequence (Q99873 with tags, fused parts or gaps): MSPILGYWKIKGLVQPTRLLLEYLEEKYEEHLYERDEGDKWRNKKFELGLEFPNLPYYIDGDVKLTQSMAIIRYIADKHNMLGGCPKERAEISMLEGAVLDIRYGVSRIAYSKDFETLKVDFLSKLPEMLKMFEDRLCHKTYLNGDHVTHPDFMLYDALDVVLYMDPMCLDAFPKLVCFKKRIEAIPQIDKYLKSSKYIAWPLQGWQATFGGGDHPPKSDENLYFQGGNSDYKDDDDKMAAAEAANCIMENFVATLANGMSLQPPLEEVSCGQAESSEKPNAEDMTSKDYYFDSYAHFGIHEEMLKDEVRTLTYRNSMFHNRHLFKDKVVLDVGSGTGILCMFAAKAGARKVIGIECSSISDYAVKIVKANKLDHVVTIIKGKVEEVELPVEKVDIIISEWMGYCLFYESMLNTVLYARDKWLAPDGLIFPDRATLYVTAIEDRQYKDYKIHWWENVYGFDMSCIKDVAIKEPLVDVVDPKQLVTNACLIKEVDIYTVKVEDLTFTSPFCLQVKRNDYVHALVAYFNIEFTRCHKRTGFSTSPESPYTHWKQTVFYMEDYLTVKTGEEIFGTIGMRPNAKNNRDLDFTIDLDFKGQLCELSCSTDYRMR

| Structure (SMILES) | IC50 [µM] |
| --- | --- |
| COC(=O)Nc1cc(-c2cccc(CN(C)CCN)c2)nc2c1cnn2C(C)C [Compound 71] | 0.302 |
| CCNc1cc(-c2cccc(CN(C)CCNC)c2)nc2c1cnn2C(C)C [Compound 72] | 0.303 |
| CNCCN(C)Cc1cccc(-c2ccc3cnn(C(C)C)c3n2)c1 [Compound 73] | 0.306 |
| CNCCN(C)Cc1cccc(-c2cc(C#N)c3cnn(C(C)C)c3n2)c1 [Compound 74] | 0.309 |
| CNCCN(C)Cc1cccc(-c2ccc3nc[nH]c3c2)c1 [Compound 75] | 0.312 |
| CNCCN(C)Cc1cccc(-c2cc(NC3CCOCC3)c3cnn(C(C)C)c3n2)c1 [Compound 76] | 0.317 |
| CCOC(=O)c1cc(-c2cccc(CN(C)CCNC)c2)nc2c1cnn2C(C)C [Compound 78] | 0.337 |
| CNCCN(C)Cc1cccc(-c2cc(N3CCC3)c3cnn(C(C)C)c3n2)c1 [Compound 79] | 0.341 |
| COc1ccccc1Cn1cnc2ccc(-c3ccc(CNCCN)cc3)cc21 [Compound 80] | 0.345 |
| NCCNCc1ccc(-c2ccc3ncn(CC4CCCNC4)c3c2)cc1 (centres unmarked) [Compound 81] | 0.359 |
| Cc1ccccc1Cn1cnc2ccc(-c3ccc(CNCCN)cc3)cc21 [Compound 82] | 0.375 |
| CNCCN(C)Cc1cccc(-c2cc(C(=O)NCCC(=O)NCc3ccn(C)n3)c3cnn(C(C)C)c3n2)c1 [Compound 83] | 0.378 |
| CC(C)n1ncc2c(NC(=O)OCc3ccccc3)cc(-c3cccc(CN(C)CCN)c3)nc21 [Compound 84] | 0.387 |
| CNCCN(C)Cc1cccc(-c2cc(NC(=O)NC(C)C)c3cnn(C(C)C)c3n2)c1 [Compound 85] | 0.391 |
| CC(C)NC(=O)Nc1cc(-c2cccc(CN(C)CCN)c2)nc2c1cnn2C(C)C [Compound 86] | 0.397 |
| CNCCN(C)Cc1cccc(-c2cc(C(=O)NC3CCOCC3)c3cnn(C4CC4)c3n2)c1 [Compound 87] | 0.412 |
| CNCCN(C)Cc1cccc(-c2cc(C(=O)NCCCC(=O)NCc3ccn(C)n3)c3cnn(C(C)C)c3n2)c1 [Compound 88] | 0.413 |
| CNCCN(C)Cc1cccc(-c2ccc3ncn(C)c3c2)c1 [Compound 92] | 0.432 |
| CNCCN(C)Cc1cccc(-c2cc(N3CCC(C#N)CC3)c3cnn(C(C)C)c3n2)c1 [Compound 93] | 0.433 |
| COc1cccc(CCn2cnc3ccc(-c4ccc(CNCCN)cc4)cc32)c1 [Compound 94] | 0.446 |
| CNCCN(C)Cc1cccc(-c2cc(N(C)C3CC3)c3cnn(C(C)C)c3n2)c1 [Compound 95] | 0.451 |
| CN(CCN)Cc1cccc(-c2nc(NC3CC3)c3cnn(C4CC4)c3n2)c1 [Compound 96] | 0.451 |
| Cc1ccc(Cn2cnc3ccc(-c4ccc(CNCCN)cc4)cc32)cc1 [Compound 97] | 0.452 |
| CNCCN(C)Cc1cccc(-c2cc(C(=O)NCc3ccccn3)c3cnn(C(C)C)c3n2)c1 [Compound 98] | 0.456 |
| CNCCN(C)Cc1cccc(-c2nc(N3CCOCC3)c3cnn(C(C)C)c3n2)c1 [Compound 99] | 0.457 |
| CNCCN(C)Cc1cccc(-c2ccc3cnn(C(C)C)c3c2)c1 [Compound 100] | 0.477 |

Further lines, results first:

| IC50 [µM] | Structure (SMILES) |
| --- | --- |
| 0.0267 | CC(C)n1ncc2c(C(=O)N(C)[C@@H](C)c3ccccc3)cc(-c3cccc(CN(C)CCN)c3)cc21 [Compound 3] |
| 0.0348 | CNCCN(C)Cc1cccc(-c2cnc3c(c2)c(C2CC2)nn3CC2CCOCC2)c1 [Compound 4] |
| 0.0369 | CN(CCN)Cc1cccc(-c2nc(NCc3cn4ccsc4n3)c3cnn(C4CC4)c3n2)c1 [Compound 5] |
| 0.0369 | CNCCN(C)Cc1cccc(-c2nc(NCc3cn4ccsc4n3)c3cnn(C4CC4)c3n2)c1 [Compound 6] |
| 0.0452 | Cc1c(C(=O)NCc2ccccc2)cc(-c2ccc(CN(C)CCN)cc2)c2cn[nH]c12 [Compound 7] |
| 0.047 | COc1cccc(Cn2cnc3ccc(-c4ccc(CN(C)CCN)cc4)cc32)c1 [Compound 8] |
| 0.0473 | CNCCN(C)Cc1cccc(-c2nc(NCc3ccccn3)c3cnn(C4CC4)c3n2)c1 [Compound 9] |
| 0.212 | CCC(O)c1cc(-c2cccc(CN(C)CCNC)c2)nc2c1cnn2C(C)C (centres unmarked) [Compound 48] |
| 0.213 | CNCCN(C)Cc1cccc(-c2cc(-c3cnn(C)c3)c3cnn(C(C)C)c3n2)c1 [Compound 49, N1-(3-(1-isopropyl-4-(1-methyl-1H-pyrazol-4-yl)-1H-pyrazolo[3,4-b]pyridin-6-yl)benzyl)-N1,N2-dimethylethane-1,2-diamine] |
| 0.223 | CNCCN(C)Cc1cccc(-c2cc(N3CCC(C(F)(F)F)CC3)c3cnn(C(C)C)c3n2)c1 [Compound 50] |
| 0.226 | CNCCN(C)Cc1cccc(-c2cc(N3CCC(OC)CC3)c3cnn(C(C)C)c3n2)c1 [Compound 51] |
| 0.226 | Cc1c(CNc2nc(-c3cccc(CN(C)CCN)c3)nc3c2cnn3C2CC2)cnn1C [Compound 52] |
| 0.228 | CCOc1cc(-c2cccc(CN(C)CCNC)c2)nc2c1cnn2C(C)C [Compound 53] |
| 0.231 | CC(C)n1ncc2c(C(=O)NCc3ccccc3Cl)cc(-c3cccc(CN(C)CCN)c3)nc21 [Compound 54] |
| 0.236 | CNCCN(C)Cc1cccc(-c2cc(N3CCCC(C#N)C3)c3cnn(C(C)C)c3n2)c1 (centres unmarked) [Compound 55] |
| 0.238 | CNCCN(C)Cc1cccc(-c2cc(C(=O)N3CCCCC3)c3cnn(C(C)C)c3n2)c1 [Compound 56] |
| 0.238 | CNCCN(C)Cc1cccc(-c2nc(NCc3cnn(C)c3C)c3cnn(C4CC4)c3n2)c1 [Compound 57] |
| 0.239 | CNCCN(C)Cc1cccc(-c2cc(NC3COC3)c3cnn(C(C)C)c3n2)c1 [Compound 58] |
| 0.244 | CC(C)n1cc2c(Cl)cc(-c3cccc(CN(C)CCN)c3)nc2n1 [Compound 59] |
| 0.248 | CNCCN(C)Cc1cccc(-c2cc(C(=O)NCCCC(=O)NCC3CCOCC3)c3cnn(C(C)C)c3n2)c1 [Compound 60] |
| 0.249 | CC(C)n1ncc2c(N3CCOCC3)cc(-c3cccc(CN(C)CCN)c3)nc21 [Compound 61, N1-(3-(1-isopropyl-4-morpholino-1H-pyrazolo[3,4-b]pyridin-6-yl)benzyl)-N1-methylethane-1,2-diamine] |
| 0.258 | CNCCN(C)Cc1cccc(-c2cc(N3CCOCC3)n3ncc(C(C)C)c3n2)c1 [Compound 62, N1-(3-(3-isopropyl-7-morpholinopyrazolo[1,5-a]pyrimidin-5-yl)benzyl)-N1,N2-dimethylethane-1,2-diamine formate] |
| 0.262 | CNCCN(C)Cc1cccc(-c2nc(NCc3cccnc3)c3cnn(C4CC4)c3n2)c1 [Compound 63] |
| 0.271 | CNCCN(C)Cc1cccc(-c2cc(C(=O)NCCC(=O)NCC3CCOCC3)c3cnn(C(C)C)c3n2)c1 [Compound 64] |
| 0.271 | CC(C)n1ncc2c(C(=O)NCc3ccccc3F)cc(-c3cccc(CN(C)CCN)c3)nc21 [Compound 65] |
| 0.274 | CN(CCN)Cc1cccc(-c2nc(NCc3ccncc3)c3cnn(C4CC4)c3n2)c1 [Compound 66] |
| 0.275 | CNCCN(C)Cc1cccc(-c2cc(-c3ccoc3)c3cnn(C(C)C)c3n2)c1 [Compound 67] |
| 0.277 | CNCCN(C)Cc1cccc(-c2cc(N3CCOCC3)c3cnn(C(C)C)c3n2)c1 [Compound 68] |
| 0.282 | CNCCN(C)Cc1cccc(-c2nc(NCc3ccncc3)c3cnn(C4CC4)c3n2)c1 [Compound 69] |
| 0.295 | NCCNCc1ccc(-c2ccc3ncn(CC4CCNCC4)c3c2)cc1 [Compound 70] |
